Measured values from patent US20190231751A1, “TREATMENT OF FIBROTIC DISORDERS WITH JUN N-TERMINAL KINASE INHIBITORS” (Imago Pharmaceuticals, Inc., priority 2016, published 2019).

Legend:
Type in all cases: biochemical
JNK1 = JNK1 (Homo sapiens, UniProt P45983); assay: In vitro JNK1 inhibition (Table 1)
Description: (§1) In vitro assays for the determination of JNK activities are known in the art and exemplary assay formats are described herein.
(§2) IC50 values in Table 1 were determined using the procedures as described in U.S. Pat. No. 8,450,353.

JNK3 = JNK3 (Homo sapiens, UniProt P53779); assay: In vitro JNK3 inhibition (Table 1)
Chain of JNK3 (P53779 whole entry, species assumed): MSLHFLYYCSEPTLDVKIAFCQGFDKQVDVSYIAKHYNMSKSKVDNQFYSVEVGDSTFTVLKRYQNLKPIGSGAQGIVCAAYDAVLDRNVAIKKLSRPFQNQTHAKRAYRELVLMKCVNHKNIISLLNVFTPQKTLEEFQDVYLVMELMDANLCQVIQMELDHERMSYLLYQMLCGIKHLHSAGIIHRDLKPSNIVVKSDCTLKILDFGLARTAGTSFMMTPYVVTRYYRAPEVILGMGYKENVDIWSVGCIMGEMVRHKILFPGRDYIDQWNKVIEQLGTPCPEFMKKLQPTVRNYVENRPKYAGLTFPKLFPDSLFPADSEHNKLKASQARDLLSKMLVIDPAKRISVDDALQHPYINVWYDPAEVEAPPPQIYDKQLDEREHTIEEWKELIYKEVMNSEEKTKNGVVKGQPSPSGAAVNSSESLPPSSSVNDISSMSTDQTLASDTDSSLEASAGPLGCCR
Description: as §1, §2

JNK2 = JNK2 (Homo sapiens, UniProt P45984); assay: In vitro JNK2 inhibition (Table 1)
Chain of JNK2 (P45984 whole entry, species assumed): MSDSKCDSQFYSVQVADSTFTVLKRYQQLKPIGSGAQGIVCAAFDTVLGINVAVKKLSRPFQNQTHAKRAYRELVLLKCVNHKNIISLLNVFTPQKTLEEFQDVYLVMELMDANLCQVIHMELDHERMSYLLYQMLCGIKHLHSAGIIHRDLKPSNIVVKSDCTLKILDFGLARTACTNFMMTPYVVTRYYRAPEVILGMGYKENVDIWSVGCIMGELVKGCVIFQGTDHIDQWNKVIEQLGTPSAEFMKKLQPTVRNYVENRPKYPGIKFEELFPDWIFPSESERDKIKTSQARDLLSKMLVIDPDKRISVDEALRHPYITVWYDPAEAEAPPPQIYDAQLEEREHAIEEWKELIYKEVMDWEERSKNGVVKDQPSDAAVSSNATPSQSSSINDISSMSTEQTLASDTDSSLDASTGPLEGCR
Description: as §1, §2

Chain of JNK1 (P45983 whole entry, species assumed): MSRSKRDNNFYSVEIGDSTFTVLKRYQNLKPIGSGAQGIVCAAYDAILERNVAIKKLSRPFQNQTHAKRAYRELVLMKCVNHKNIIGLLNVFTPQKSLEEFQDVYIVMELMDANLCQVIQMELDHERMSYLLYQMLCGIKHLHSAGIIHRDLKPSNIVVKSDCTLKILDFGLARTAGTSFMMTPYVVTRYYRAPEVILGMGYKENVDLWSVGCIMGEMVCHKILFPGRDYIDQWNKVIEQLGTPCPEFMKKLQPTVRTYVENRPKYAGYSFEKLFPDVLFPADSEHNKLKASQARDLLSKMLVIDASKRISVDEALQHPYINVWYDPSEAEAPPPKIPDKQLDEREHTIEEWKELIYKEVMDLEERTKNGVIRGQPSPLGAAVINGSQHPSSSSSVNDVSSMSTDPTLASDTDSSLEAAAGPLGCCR

| SMILES | IC50 (JNK1) | IC50 (JNK3) | IC50 (JNK2) |
| --- | --- | --- | --- |
| O=C(CN1C(=O)CCc2cc(F)ccc21)Nc1scc(Br)c1-c1ncn[nH]1 [N-(4-bromo-3-(1H-1,2,4-triazol-5-yl)thiophen-2-yl)-2-(6-fluoro-2-oxo-3,4-dihydroquinolin-1(2H)-yl)acetamide] | < 100 nM | < 100 nM | < 100 nM |
| O=C(Cn1c(=O)ccc2cc(F)ccc21)Nc1scc(Br)c1-c1ncn[nH]1 [N-(4-bromo-3-(1H-1,2,4-triazol-5-yl)thiophen-2-yl)-2-(6-fluoro-2-oxoquinolin-1(2H)-yl)acetamide] | < 100 nM | < 100 nM | < 100 nM |
| O=C(Cc1c(F)ccc2ncccc12)Nc1scc(Br)c1-c1ncn[nH]1 [N-(4-bromo-3-(1H-1,2,4-triazol-5-yl)thiophen-2-yl)-2-(6-fluoroquinolin-5-yl)acetamide] | < 100 nM | < 100 nM | < 100 nM |
| O=C(CN1C(=O)CCc2ccc(Cl)cc21)Nc1scc(Br)c1-c1ncn[nH]1 [N-(4-bromo-3-(1H-1,2,4-triazol-5-yl)thiophen-2-yl)-2-(7-chloro-2-oxo-3,4-dihydroquinolin-1(2H)-yl)acetamide] | < 100 nM | < 100 nM | < 100 nM |
| N#Cc1ccc2ccc(=O)n(CC(=O)Nc3scc(Br)c3-c3ncn[nH]3)c2c1 [N-(4-bromo-3-(1H-1,2,4-triazol-5-yl)thiophen-2-yl)-2-(7-cyano-2-oxoquinolin-1(2H)-yl)acetamide] | < 100 nM | < 100 nM | < 100 nM |
| O=C(Cn1c(=O)ccc2cc(C(F)(F)F)c(F)cc21)Nc1scc(Br)c1-c1ncn[nH]1 [N-(4-bromo-3-(1H-1,2,4-triazol-5-yl)thiophen-2-yl)-2-(7-fluoro-2-oxo-6-(trifluoromethyl)quinolin-1(2H)-yl)acetamide] | < 100 nM | < 100 nM | < 100 nM |
| O=C(Cn1c(=O)ccc2ccc(F)cc21)Nc1scc(Br)c1-c1ncn[nH]1 [N-(4-bromo-3-(1H-1,2,4-triazol-5-yl)thiophen-2-yl)-2-(7-fluoro-2-oxoquinolin-1(2H)-yl)acetamide] | < 100 nM | < 100 nM | < 100 nM |
| O=C(Cc1ccc(F)c2cnccc12)Nc1scc(Br)c1-c1ncn[nH]1 [N-(4-bromo-3-(1H-1,2,4-triazol-5-yl)thiophen-2-yl)-2-(8-fluoroisoquinolin-5-yl)acetamide] | < 100 nM | < 100 nM | < 100 nM |
| O=C(Cc1cccc2cnccc12)Nc1scc(Br)c1-c1ncn[nH]1 [N-(4-bromo-3-(1H-1,2,4-triazol-5-yl)thiophen-2-yl)-2-(isoquinolin-5-yl)acetamide] | < 100 nM | < 100 nM | < 100 nM |
| O=C(Cc1cccc2ncccc12)Nc1scc(Br)c1-c1ncn[nH]1 [N-(4-bromo-3-(1H-1,2,4-triazol-5-yl)thiophen-2-yl)-2-(quinolin-5-yl)acetamide] | < 100 nM | < 100 nM | < 100 nM |
| O=C(CN1C(=O)CCc2ncccc21)Nc1scc(Br)c1-c1ncco1 [N-(4-bromo-3-(oxazol-2-yl)thiophen-2-yl)-2-(2-oxo-3,4-dihydro-1,5-naphthyridin-1(2H)-yl)acetamide] | < 100 nM | < 100 nM | < 100 nM |
| Cn1cnc(-c2c(Cl)csc2NC(=O)CN2C(=O)CCc3ncccc32)n1 [N-(4-chloro-3-(1-methyl-1H-1,2,4-triazol-3-yl)thiophen-2-yl)-2-(2-oxo-3,4-dihydro-1,5-naphthyridin-1(2H)-yl)acetamide] | < 100 nM | < 100 nM | < 100 nM |
| Cn1cnc(-c2c(Cl)csc2NC(=O)Cn2c(=O)ccn3nc(C(F)(F)F)cc23)n1 [N-(4-chloro-3-(1-methyl-1H-1,2,4-triazol-3-yl)thiophen-2-yl)-2-(5-oxo-2-(trifluoromethyl)pyrazolo[1,5-a]pyrimidin-4(5H)-yl)acetamide] | < 100 nM | < 100 nM | < 100 nM |
| Cn1cnc(-c2c(Cl)csc2NC(=O)Cn2c(=O)ccn3nccc23)n1 [N-(4-chloro-3-(1-methyl-1H-1,2,4-triazol-3-yl)thiophen-2-yl)-2-(5-oxopyrazolo[1,5-a]pyrimidin-4(5H)-yl)acetamide] | < 100 nM | < 100 nM | < 100 nM |
| O=C(CN1C(=O)CCc2ncccc21)Nc1scc(Cl)c1-c1nc[nH]n1 [N-(4-chloro-3-(1H-1,2,4-triazol-3-yl)thiophen-2-yl)-2-(2-oxo-3,4-dihydro-1,5-naphthyridin-1(2H)-yl)acetamide] | < 100 nM | < 100 nM | < 100 nM |
| O=C(Cn1c(=O)ccc2cnc(C(F)(F)F)cc21)Nc1scc(Cl)c1-c1nc[nH]n1 [N-(4-chloro-3-(1H-1,2,4-triazol-3-yl)thiophen-2-yl)-2-(2-oxo-7-(trifluoromethyl)-1,6-naphthyridin-1(2H)-yl)acetamide] | < 100 nM | < 100 nM | < 100 nM |
| N#Cc1ccc2c(ccc(=O)n2CC(=O)Nc2scc(Cl)c2-c2nc[nH]n2)c1 [N-(4-chloro-3-(1H-1,2,4-triazol-3-yl)thiophen-2-yl)-2-(6-cyano-2-oxoquinolin-1(2H)-yl)acetamide] | < 100 nM | < 100 nM | < 100 nM |
| CN(C)CCN(C(=O)Cn1c(=O)ccc2cc(C(F)(F)F)ccc21)c1scc(Cl)c1-c1nc[nH]n1 [N-(4-chloro-3-(1H-1,2,4-triazol-3-yl)thiophen-2-yl)-N-(2-(dimethylamino)ethyl)-2-(2-oxo-6-(trifluoromethyl)quinolin-1(2H)-yl)acetamide] | 100 to 10000 nM | 100 to 10000 nM | 100 to 10000 nM |
| O=C(CN1C(=O)CCc2ccccc21)Nc1scc(Cl)c1-c1ncn[nH]1 [N-(4-chloro-3-(1H-1,2,4-triazol-5-yl)thiophen-2-yl)-2-(2-oxo-3,4-dihydroquinolin-1(2H)-yl)acetamide] | < 100 nM | < 100 nM | < 100 nM |
| O=C(Cn1c(=O)ccc2nc(C(F)(F)F)ccc21)Nc1scc(Cl)c1-c1ncn[nH]1 [N-(4-chloro-3-(1H-1,2,4-triazol-5-yl)thiophen-2-yl)-2-(2-oxo-6-(trifluoromethyl)-1,5-naphthyridin-1(2H)-yl)acetamide] | < 100 nM | < 100 nM | < 100 nM |
| O=C(Cn1c(=O)ccn2nc(C(F)(F)F)cc12)Nc1scc(Cl)c1-c1ncn[nH]1 [N-(4-chloro-3-(1H-1,2,4-triazol-5-yl)thiophen-2-yl)-2-(5-oxo-2-(trifluoromethyl)pyrazolo[1,5-a]pyrimidin-4(5H)-yl)acetamide] | < 100 nM | < 100 nM | < 100 nM |

Further lines, results first:

| IC50 (JNK1) | IC50 (JNK3) | IC50 (JNK2) | SMILES |
| --- | --- | --- | --- |
| 100 to 10000 nM | < 100 nM | < 100 nM | O=C(Cn1c(=O)ccc2cc(C(F)(F)F)ccc21)Nc1scc(Br)c1-n1nccn1 [N-(4-bromo-3-(2H-1,2,3-triazol-2-yl)thiophen-2-yl)-2-(2-oxo-6-(trifluoromethyl)quinolin-1(2H)-yl)acetamide] |
| < 100 nM | < 100 nM | < 100 nM | CN(C)CCn1cnc(-c2c(Cl)csc2NC(=O)Cn2c(=O)ccc3cc(C(F)(F)F)ccc32)n1 [N-(4-chloro-3-(1-(2-(dimethylamino)ethyl)-1H-1,2,4-triazol-3-yl)thiophen-2-yl)-2-(2-oxo-6-(trifluoromethyl)quinolin-1(2H)-yl)acetamide] |
| < 100 nM | < 100 nM | < 100 nM | CN(C)CCCn1cnc(-c2c(Cl)csc2NC(=O)Cn2c(=O)ccc3cc(C(F)(F)F)ccc32)n1 [N-(4-chloro-3-(1-(3-(dimethylamino)propyl)-1H-1,2,4-triazol-3-yl)thiophen-2-yl)-2-(2-oxo-6-(trifluoromethyl)quinolin-1(2H)-yl)acetamide] |
| < 100 nM | < 100 nM | < 100 nM | O=C(Cn1c(=O)ccc2cc(C(F)(F)F)ccc21)Nc1scc(Cl)c1-c1ncn(CCCN2CCCC2)n1 [N-(4-chloro-3-(1-(3-(pyrrolidin-1-yl)propyl)-1H-1,2,4-triazol-3-yl)thiophen-2-yl)-2-(2-oxo-6-(trifluoromethyl)quinolin-1(2H)-yl)acetamide] |
| < 100 nM | < 100 nM | < 100 nM | O=C(Cn1c(=O)ccc2cc(C(F)(F)F)ccc21)Nc1scc(Cl)c1-c1ncn(CCCN2CCOCC2)n1 [N-(4-chloro-3-(1-(3-morpholinopropyl)-1H-1,2,4-triazol-3-yl)thiophen-2-yl)-2-(2-oxo-6-(trifluoromethyl)quinolin-1(2H)-yl)acetamide] |
| < 100 nM | < 100 nM | < 100 nM | Cn1cnc(-c2c(Cl)csc2NC(=O)Cn2c(=O)ccc3nc(C(F)(F)F)ccc32)n1 [N-(4-chloro-3-(1-methyl-1H-1,2,4-triazol-3-yl)thiophen-2-yl)-2-(2-oxo-6-(trifluoromethyl)-1,5-naphthyridin-1(2H)-yl)acetamide] |
| < 100 nM | < 100 nM | < 100 nM | Cn1cnc(-c2c(Cl)csc2NC(=O)Cn2c(=O)ccc3cnc(C(F)(F)F)cc32)n1 [N-(4-chloro-3-(1-methyl-1H-1,2,4-triazol-3-yl)thiophen-2-yl)-2-(2-oxo-7-(trifluoromethyl)-1,6-naphthyridin-1(2H)-yl)acetamide] |
| 100 to 10000 nM | 100 to 10000 nM | 100 to 10000 nM | O=C(Cn1c(=O)ccc2cc(C(F)(F)F)ccc21)N(CCCN1CCCC1)c1scc(Cl)c1-c1nc[nH]n1 [N-(4-chloro-3-(1H-1,2,4-triazol-3-yl)thiophen-2-yl)-2-(2-oxo-6-(trifluoromethyl)quinolin-1(2H)-yl)-N-(3-(pyrrolidin-1-yl)propyl)acetamide] |
| < 100 nM | < 100 nM | < 100 nM | O=C(Cn1c(=O)ccc2cc(C(F)(F)F)ccc21)Nc1scc(Cl)c1-c1ncn[nH]1 [N-(4-chloro-3-(1H-1,2,4-triazol-5-yl)thiophen-2-yl)-2-(2-oxo-6-(trifluoromethyl)quinolin-1(2H)-yl)acetamide] |
